Laboratory results reported in patent US11752077B2, “Oily moisturizer and topical skin composition containing same” (The Nisshin OilliO Group, Ltd., priority 2017, dated 2023).

Legend:
[1] = tested on: stratum corneum moisture content of the skin (forearm); assay: Evaluation test of moisture retention effect upon single application (esterified products, oils, glycerol applied neat); type: in vivo, human
Procedure: In the present invention, the moisture retention effect of the esterified product, namely the improvement effect on the moisture retention function of the skin, was evaluated based on the change in the stratum corneum moisture content of the skin before and after application of the esterified product. Measurement of the stratum corneum moisture content was performed using a stratum corneum moisture content measuring device (device name: SKICON-200), manufactured by IBS Co., Ltd. This stratum corneum moisture content measuring device is a device that is widely used for measuring the moisturestate of the stratum corneum, and is a device that measures the electrical conductivity (μS) of the stratum corneum. The larger the skin moisture content, the higher the electrical conductivity of the stratum corneum becomes. Accordingly, the electrical conductivity (μS) measured using the stratum corneum moisture content measuring device was deemed to indicate the stratum corneum moisture content. The skin moisture retention effect of each test sample was evaluated by applying the test sample directly to washed skin, and then measuring the change in the skin stratum corneum moisture content after wiping the test sample off the skin using a cotton swab soaked in hexane. The skin stratum corneum moisture content measurement test was conducted on a plurality of panelists in the season from autumn to spring when the skin is prone to dryness. Further, in order to remove the effects of room temperature and humidity on the measurement results, the tests were performed in a room in which the room temperature had been adjusted to 18 to 22° C. and the humidity had been adjusted to 40 to 55% RH. Specifically, first, the forearm of the person was washed with soap, and the person was then held for 30 minutes in a room in which the room temperature and the humidity had been controlled within the above ranges to acclimatize the skin of the forearm to the measurement environment, thus completing preparations for the initial conditions for measurement. […] Subsequently, 40 μL of the test sample being evaluated was applied uniformly to the square measurement region of the forearm. Sixty minutes after the application, a cotton swab that had been immersed in hexane was used to wipe off the test sample, and 30 minutes after the test sample had been wiped off, the stratum corneum moisture content of the wiped region of the skin (the stratum corneum moisture content upon test completion) was measured. Further, when evaluating the moisture retention effect of the test sample, in order to consider and subtract the change in the state of the skin during the measurement period, the stratum corneum moisture content of a portion of the skin to which the sample had not been applied was also measured prior to test commencement and upon test completion, and the change in the stratum corneum moisture content of this uncoated portion was calculated. A moisture retention effect value (μS) was determined from the measured values for the skin stratum corneum moisture content based on the formulas below. The moisture retention effect value (μS) for each test sample was calculated as the average value for the moisture retention effect values (μS) across five panelists. […] Based on the moisture retention effect value (μS) for each test sample, the moisture retention effect of each test sample was evaluated using the criteria in Table 43. […] Using various commercially available oils and glycerol, the <Evaluation of moisture retention upon single application> described above was conducted to ascertain the moisture retention effect. […] The glycerol of Comparative Example 21 is a typical aqueous moisturizer, and is widely used as a moisturizer. […] With the exception of changing the removal solvent from hexane to water, the evaluation conditions were the same as those described above in the <Evaluation of moisture retention upon single application>.

[2] = tested on: stratum corneum moisture content of the skin (forearm); assay: as above; type: in vivo, human; conditions: 60 minutes after application, glycerol still applied to the skin surface, prior to removal using water
[3] = single application of commercially available oil or glycerol to skin, measured after removal (hexane swab; water swab for glycerol)
[4] = single application of commercially available oil or glycerol, class from moisture retention effect value
[5] = esterified product applied neat, 40 μL on 3 cm x 3 cm forearm region, wiped off with hexane after 60 minutes, measured 30 minutes later, average of five panelists
[6] = esterified product applied neat, 40 μL on forearm, wiped off with hexane after 60 minutes, measured 30 minutes later, five panelists

Row | Compound | Moisture retention effect value [1, 3] [μS] | Moisture retention evaluation result [1, 4] | Moisture retention effect value [1, 5] [μS] | Moisture retention evaluation result [1, 6] | Moisture retention effect value ([1]; removal after 60 minutes with cotton swab immersed in water rather than hexane, measured 30 minutes later) [μS] | increase in the electrical conductivity that corresponds with the moisture retention effect value [2] [μS]
1 | CCCCC(CC)C(=O)OCC(COC(=O)C(CC)CCCC)OC(=O)C(CC)CCCC (centres unmarked) [Comparative Example 14, glyceryl tri(2-ethylhexanoate)] | 32 | e1 (less than 40) |  |  |  | 
2 | caprate ester of ditrimethylolpropane [Example 3] |  |  | 70 | a1 (70 or greater) |  | 
3 | caprylate ester of ditrimethylolpropane [Example 2] |  |  | 87 | a1 (70 or greater) |  | 
4 | OCC(O)CO [Comparative Example 21, glycerol] | 8 | e1 (less than 40) |  |  | 8 | 477
5 | CC(C)CCCCCCCCCCCCCCC(=O)OCC(C)C [Comparative Example 9, isobutyl isostearate] |  |  | 47 |  |  | 
